Reference: patent publication US20240228506A1, “RIPK1 INHIBITORS AND METHODS OF USE” (Merck Sharp & Dohme LLC, priority 2021, published 2024)

What follows are compounds tested against T1, GST-RIPK1 (recombinant GST-RIPK1 kinase domain (residues 1-327)) (Homo sapiens, UniProt Q13546) (assay: RIPK1-ADP-Glo enzymatic assay). Settings: 25 nM GST-RIPK1, 300 μM ATP, 3 μM dephosphorylated-MBP; 30 minutes pre-incubation, 150 minutes reaction; ten-point titration.
T1 construct: recombinant GST-RIPK1 kinase domain (residues 1-327) enzyme; made in house; host or cells: baculovirus-transfected Sf21 insect cells
T1 sequence (Q13546 1-327): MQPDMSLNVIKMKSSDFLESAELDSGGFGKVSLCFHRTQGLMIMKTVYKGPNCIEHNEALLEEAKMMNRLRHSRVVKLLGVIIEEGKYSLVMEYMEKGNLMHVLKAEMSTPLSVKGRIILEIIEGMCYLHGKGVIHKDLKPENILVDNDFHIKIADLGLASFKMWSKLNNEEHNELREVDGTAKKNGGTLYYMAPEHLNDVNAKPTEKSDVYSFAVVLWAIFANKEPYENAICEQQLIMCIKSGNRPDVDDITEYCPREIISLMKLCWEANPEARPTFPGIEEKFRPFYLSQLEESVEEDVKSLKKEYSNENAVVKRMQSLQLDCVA
Format: biochemical
Description: The enzymatic activity of RIPK1 is measured using an assay derived from ADP-Glo kit (Promega™), which provides a luminescent-based ADP detection system. Specifically, the ADP generated by RIPK1 kinase is proportionally detected as luminescent signals in a homogenous fashion. In this context, the assessment of the inhibitory effect of small molecules (EC50) is measured by the effectiveness of the compounds to inhibit the ATP to ADP conversion by RIPK1. In this assay, the potency (EC50) of each compound was determined from a ten-point (1:3 serial dilution; top compound concentration of 100000 nM) titration curve using the following outlined procedure. To each well of a white ProxiPlus 384 well-plate, […] of compound (1% DMSO in final assay volume of 3 μL) was dispensed, followed by the addition of 2 μL of 1× assay buffer (25 mM Hepes 7.3, 20 mM MgCl2, 50 mM NaCl, 1 mM DTT, 0.005% Tween20, and 0.02% BSA) containing 37.5 nM of GST-RIPK1 (recombinant GST-RIPK1 kinase domain (residues 1-327) enzyme produced from baculovirus-transfected Sf21 cells: MW=62 kDa). Plates were placed in an ambient temperature humidified chamber for a 30 minutes pre-incubation with compound. Subsequently, each reaction was initiated by the addition of 1 μL 1×assay buffer containing 900 μM ATP and […]. The final reaction in each well of 3 μL consists of 25 nM of GST-RIPK1, 300 μM ATP, and 3 μM dephosphorylated-MBP. Kinase reactions were allowed to proceed for 150 minutes prior to adding ADP-Glo reagents per Promega's outlined kit protocol. Dose-response curves were generated by plotting percent effect (% product conversion; Y-axis) vs. Log10 compound concentrations (X-axis). EC50 values were calculated using a non-linear regression, four-parameters sigmoidal dose-response model.

IC50 | SMILES
10 nM | CCC(C)(OC)C(=O)N1C[C@@H]2C[C@H]1c1cncc(C#N)c1O2 (single isomer, unassigned) [Compound 1-16, (2S,5S)-4-[2(S or R)-methoxy-2-methylbutanoyl]-2,3,4,5-tetrahydro-2,5-methanopyrido[3,4-f][1,4]oxazepine-9-carbonitrile]
227 nM | CC1(C(=O)N2C[C@@H]3C[C@H]2c2cncc(Cl)c2O3)CCC1 [Compound 2-10, ((2S,5S)-9-chloro-2,3-dihydro-2,5-methanopyrido[3,4-f][1,4]oxazepin-4(5H)-yl)(1-methylcyclobutyl)methanone]
30 nM | N#Cc1ccnc(N2CCC(F)(C(=O)N3C[C@@H]4C[C@H]3c3cncc(C#N)c3O4)CC2)n1 [Compound 1-83, (2S,5S)-4-(1-(4-cyanopyrimidin-2-yl)-4-fluoropiperidine-4-carbonyl)-2,3,4,5-tetrahydro-2,5-methanopyrido[3,4-f][1,4]oxazepine-9-carbonitrile]
7 nM | N#Cc1cncc2c1O[C@H]1C[C@@H]2N(C(=O)C23CCC(C(F)(F)F)(CC2)C3)C1 [Compound 1-2, (2S,5S)-4-[4-(trifluoromethyl)bicyclo[2.2.1]heptane-1-carbonyl]-2,3,4,5-tetrahydro-2,5-methanopyrido[3,4-f][1,4]oxazepine-9-carbonitrile]
78 nM | O=C(N1C[C@@H]2C[C@H]1c1cncc(C#CCO)c1O2)C12CCC(C(F)(F)F)(CC1)C2 [Compound 2-57, ((2S,5S)-9-(3-hydroxyprop-1-yn-1-yl)-2,3-dihydro-2,5-methanopyrido[3,4-f][1,4]oxazepin-4(5H)-yl)(4-(trifluoromethyl)bicyclo[2.2.1]heptan-1-yl)methanone]
58 nM | N#Cc1cncc2c1O[C@H]1C[C@@H]2N(C(=O)C23CCC(F)(CC2)CC3)C1 [Compound 1-63, (2S,5S)-4-(4-fluorobicyclo[2.2.2]octane-1-carbonyl)-2,3,4,5-tetrahydro-2,5-methanopyrido[3,4-f][1,4]oxazepine-9-carbonitrile]
300 nM | N#Cc1cncc2c1O[C@H]1C[C@@H]2N(C(=O)C23CCC(C2)OC3)C1 (single isomer, unassigned) [Compound 1-50, (2S,5S)-4-[(S or R)-2-oxabicyclo[2.2.1]heptane-4-carbonyl]-2,3,4,5-tetrahydro-2,5-methanopyrido[3,4-f][1,4]oxazepine-9-carbonitrile]
67 nM | CC(F)(F)C(C)(C)C(=O)N1C[C@@H]2C[C@H]1c1cncc(F)c1O2 [Compound 2-22, 3,3-difluoro-1-((2S,5S)-9-fluoro-2,3-dihydro-2,5-methanopyrido[3,4-f][1,4]oxazepin-4(5H)-yl)-2,2-dimethylbutan-1-one]
163 nM | CC(C)(OC(F)(F)F)C(=O)N1C[C@@H]2C[C@H]1c1cncc(C#N)c1O2 [Compound 1-103, (2S,5S)-4-(2-methyl-2-(trifluoromethoxy)propanoyl)-2,3,4,5-tetrahydro-2,5-methanopyrido[3,4-f][1,4]oxazepine-9-carbonitrile]
1100 nM | Cc1cncc2c1O[C@H]1C[C@@H]2N(C(=O)C(C)(C)C)C1 [Compound 2-13, 2,2-dimethyl-1-((2S,5S)-9-methyl-2,3-dihydro-2,5-methanopyrido[3,4-f][1,4]oxazepin-4(5H)-yl)propan-1-one]
42 nM | CC(C)(CC#N)C(=O)N1C[C@@H]2C[C@H]1c1cncc(C#N)c1S2 [Compound 4-4, (2S,5S)-4-(3-cyano-2,2-dimethylpropanoyl)-2,3,4,5-tetrahydro-2,5-methanopyrido[3,4-f][1,4]thiazepine-9-carbonitrile]
49 nM | COc1ncc(C#Cc2cncc3c2O[C@H]2C[C@@H]3N(C(=O)C(C)(C)C(F)F)C2)c(OC)n1 [Compound 2-94, 1-((2S,5S)-9-((2,4-dimethoxypyrimidin-5-yl)ethynyl)-2,3-dihydro-2,5-methanopyrido[3,4-f][1,4]oxazepin-4(5H)-yl)-3,3-difluoro-2,2-dimethylpropan-1-one]
288 nM | COC(C)(C)C(=O)N1C[C@@H]2C[C@H]1c1cncc(C#N)c1O2 [Compound 1-24, (2S,5S)-4-(2-methoxy-2-methylpropanoyl)-2,3,4,5-tetrahydro-2,5-methanopyrido[3,4-f][1,4]oxazepine-9-carbonitrile]
36 nM | Cc1ncc(C#Cc2cncc3c2O[C@H]2C[C@@H]3N(C(=O)C(C)(C)C(F)F)C2)c(C)n1 [Compound 2-95, 1-((2S,5S)-9-((2,4-dimethylpyrimidin-5-yl)ethynyl)-2,3-dihydro-2,5-methanopyrido[3,4-f][1,4]oxazepin-4(5H)-yl)-3,3-difluoro-2,2-dimethylpropan-1-one]
83 nM | CC(C)(C(=O)N1C[C@@H]2C[C@H]1c1cncc(C#Cc3cnccn3)c1O2)C(F)F [Compound 2-49, 3,3-difluoro-2,2-dimethyl-1-((2S,5S)-9-(pyrazin-2-ylethynyl)-2,3-dihydro-2,5-methanopyrido[3,4-f][1,4]oxazepin-4(5H)-yl)propan-1-one]
165 nM | C[C@@H]1C2CN(C(=O)C34CCC(C(F)(F)F)(CC3)C4)[C@H]1c1cncc(C#N)c1O2 (single isomer, unassigned) [Compound 5-4]
66 nM | CC(C)(C(=O)N1C[C@@H]2C[C@H]1c1cncc(C#Cc3ccccc3)c1O2)C(F)F [Compound 2-47, 3,3-Difluoro-2,2-dimethyl-1-((2S,5S)-9-(phenylethynyl)-2,3-dihydro-2,5-methanopyrido[3,4-f][1,4]oxazepin-4(5H)-yl)propan-1-one]
54 nM | N#Cc1cncc2c1O[C@H]1C[C@@H]2N(C(=O)C23CCC(C2)C3)C1 [Compound 1-31, (2S,5S)-4-(bicyclo[2.1.1]hexane-1-carbonyl)-2,3,4,5-tetrahydro-2,5-methanopyrido[3,4-f][1,4]oxazepine-9-carbonitrile]
78 nM | CC1(C(=O)N2C[C@@H]3C[C@H]2c2cncc(C#N)c2O3)CC1C(F)(F)F (stereo partly drawn) [Compound 1-46, (2S,5S)-4-[1-methyl-2-(trifluoromethyl)cyclopropane-1-carbonyl]-2,3,4,5-tetrahydro-2,5-methanopyrido[3,4-f][1,4]oxazepine-9-carbonitrile]
24 nM | CC(C)(C(=O)N1C[C@@H]2C[C@H]1c1cncc(C#Cc3ccnc(N)c3)c1O2)C(F)F [Compound 2-39, 1-((2S,5S)-9-((2-aminopyridin-4-yl)ethynyl)-2,3-dihydro-2,5-methanopyrido[3,4-f][1,4]oxazepin-4(5H)-yl)-3,3-difluoro-2,2-dimethylpropan-1-one]
10 nM | N#CCc1cccc(C#Cc2cncc3c2O[C@H]2C[C@@H]3N(C(=O)C34CCC(F)(CC3)C4)C2)c1 [Compound 2-99, 2-(3-(((2S,5S)-4-(4-fluorobicyclo[2.2.1]heptane-1-carbonyl)-2,3,4,5-tetrahydro-2,5-methanopyrido[3,4-f][1,4]oxazepin-9-yl)ethynyl)phenyl) acetonitrile]
587 nM | CC1OCCC1(C)C(=O)N1C[C@@H]2C[C@H]1c1cncc(C#N)c1O2 (stereo partly drawn) [Compound 1-59, (2S,5S)-4-(2,3-dimethyltetrahydrofuran-3-carbonyl)-2,3,4,5-tetrahydro-2,5-methanopyrido[3,4-f][1,4]oxazepine-9-carbonitrile]
